Structures can show the parent of a compound that is named as a salt. Where two headings read alike, the source gives them in different places. One block for each compound: values may come before it.
What was measured:
HepG2 cells = assay: Effect of compounds on cholesterol (CL) and fatty acid (FA) synthesis in HepG2 cells; format: cell-based; conditions: Homo sapiens; for activity at 3 µM: Conc. 3 μM; for activity at 10 µM: Conc. 10 μM; for activity at 30 µM: Conc. 30 μM; for activity at 1000 µM: Conc. 1000 μM
Procedure: 2. Measurement of effect of compounds on cholesterol (CL) and fatty acid (FA) synthesis in HepG2 Cells HepG2 cells were cultured in 24-well cell culture plates in DMEM (Dulbecco's Modified Eagle's Medium) containing Hepes (20 mM), bicarbonate (10 mM), glutamine (2 mM) and foetal calf serum (10% w/v). Once the cells had grown to between 80% and 90% confluence, the medium was replaced by DMEM without the addition of foetal calf serum and the cells incubated overnight. The rates of cholesterol and fatty acid synthesis were then measured by the addition of ^3 H2 O, to a specific radioactivity of 71 mCi/mmol, for the final 90 min of the incubation. Vehicle or test compound were added to the medium either 1.5 or 14.5 hr prior to the addition of ^3 H2 O to give the final desired concentration. Incubations were terminated and the rates of cholesterol and fatty acid synthesis determined from the amounts of ^3 H incorporated into cellular cholesterol and fatty acids as described previously (Berkhout et al.; Biochem J., 1990, 272, 181).

rat ATP citrate lyase = molecular target: T1, rat ATP citrate lyase (Rattus norvegicus, UniProt P16638); assay: Assay of ATP Citrate lyase in the presence of inhibitors (rat enzyme); format: biochemical; conditions: 100 μM citrate, pH 8.0, 25° C.
T1 construct: prior to removal of the livers; ATP Citrate lyase was prepared according to the method of Wraight et al; from tissue; host or cells: liver of male Wistar rats (fasted, then fed a high carbohydrate diet)
T1 sequence (P16638 1-1100): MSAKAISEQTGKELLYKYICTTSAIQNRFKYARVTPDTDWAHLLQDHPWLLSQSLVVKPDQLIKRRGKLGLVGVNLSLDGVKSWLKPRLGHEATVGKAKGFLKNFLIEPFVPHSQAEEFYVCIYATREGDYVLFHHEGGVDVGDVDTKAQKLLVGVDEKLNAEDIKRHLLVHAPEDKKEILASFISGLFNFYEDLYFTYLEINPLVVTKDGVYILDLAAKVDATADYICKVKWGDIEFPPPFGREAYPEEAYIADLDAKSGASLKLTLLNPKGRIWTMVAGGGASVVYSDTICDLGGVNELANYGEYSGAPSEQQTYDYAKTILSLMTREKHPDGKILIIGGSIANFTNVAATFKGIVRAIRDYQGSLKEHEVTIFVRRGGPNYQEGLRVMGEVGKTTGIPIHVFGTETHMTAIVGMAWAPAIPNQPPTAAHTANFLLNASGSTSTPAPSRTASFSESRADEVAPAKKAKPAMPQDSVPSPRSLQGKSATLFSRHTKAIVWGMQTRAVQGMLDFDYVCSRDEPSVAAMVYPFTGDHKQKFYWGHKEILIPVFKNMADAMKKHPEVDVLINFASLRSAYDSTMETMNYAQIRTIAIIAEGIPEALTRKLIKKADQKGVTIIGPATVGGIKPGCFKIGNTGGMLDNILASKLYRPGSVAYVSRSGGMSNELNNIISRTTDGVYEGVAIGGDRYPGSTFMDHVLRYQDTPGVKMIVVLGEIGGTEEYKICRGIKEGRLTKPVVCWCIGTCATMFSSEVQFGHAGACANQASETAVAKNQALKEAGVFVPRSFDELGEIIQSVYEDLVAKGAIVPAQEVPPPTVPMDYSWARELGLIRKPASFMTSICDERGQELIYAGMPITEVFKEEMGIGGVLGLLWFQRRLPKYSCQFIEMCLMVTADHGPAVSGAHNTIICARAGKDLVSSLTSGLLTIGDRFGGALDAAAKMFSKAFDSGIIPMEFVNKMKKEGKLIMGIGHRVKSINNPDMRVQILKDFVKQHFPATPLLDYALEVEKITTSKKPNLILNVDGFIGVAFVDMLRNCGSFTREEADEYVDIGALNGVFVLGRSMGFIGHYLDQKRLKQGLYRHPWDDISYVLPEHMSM
Procedure: 1. RAT ATP CITRATE LYASE (ACL) ASSAY
Purification of ATP Citrate lyase-human and rat enzymes
Male Wistar rats were fasted for 24 h, then fed on a high carbohydrate diet for 72 h prior to removal of the livers. ATP Citrate lyase was prepared according to the method of Wraight et al (Anal. Biochem., 1985, 144, 604-609) with modifications for large scale purification according to Wells (Eur. J. Biochem., 1991, 199, 163-168). Protein obtained by this method was pure as judged by SDS-PAGE.
Assay of ATP Citrate lyase in the presence of inhibitors
(§1) ATP Citrate lyase activity was assayed at 25° C. by reducing the oxaloacetate produced with malate dehydrogenase and NADH while monitoring at 340 nm using a Beckman DU50 spectrophotometer (according to the method of Linnet al (J. Biol. Chem., 1979, 254, 1691-1698)). Briefly, ATP citrate lyase (human or rat) was added to a 1 ml cuvette containing 50 mM Tris/HCl, pH=8.0, 0.2 mM NADH, 10 mM MgCl2, 10 mM KCl, 5 mM ATP, 200 μM coenzyme A, 10 mM dithiothreitol and malate dehydrogenase. An aqueous solution of inhibitor was added (for inhibitors which were insoluble in water, a stock solution was prepared in DMSO. However the final DMSO concentration in the cuvette was not allowed to exceed 1%.). Finally, tripotassium citrate was added to 100 μM final. This is Km for citrate (Wells et al (Eur. J. Biochem., 1992, 204, 249-255) and Houston et al (Biochim. Biophys. Acta, 1985, 844, 233-239)). Data analysis was performed using the curve fitting package Enzfitter (Elsevier Biosoft). For competitive inhibitors data was fitted to the equation
where v is the observed rate and I is the concentration of inhibitor added. Thus the dissociation constant Ki for the inhibitor could be found.

human ATP citrate lyase = molecular target: T2, human ATP citrate lyase (Homo sapiens, UniProt P53396); assay: Assay of ATP Citrate lyase in the presence of inhibitors (human enzyme); format: biochemical; conditions: 100 μM citrate, pH 8.0, 25° C.
T2 construct: made in house
T2 sequence (P53396 1-1101): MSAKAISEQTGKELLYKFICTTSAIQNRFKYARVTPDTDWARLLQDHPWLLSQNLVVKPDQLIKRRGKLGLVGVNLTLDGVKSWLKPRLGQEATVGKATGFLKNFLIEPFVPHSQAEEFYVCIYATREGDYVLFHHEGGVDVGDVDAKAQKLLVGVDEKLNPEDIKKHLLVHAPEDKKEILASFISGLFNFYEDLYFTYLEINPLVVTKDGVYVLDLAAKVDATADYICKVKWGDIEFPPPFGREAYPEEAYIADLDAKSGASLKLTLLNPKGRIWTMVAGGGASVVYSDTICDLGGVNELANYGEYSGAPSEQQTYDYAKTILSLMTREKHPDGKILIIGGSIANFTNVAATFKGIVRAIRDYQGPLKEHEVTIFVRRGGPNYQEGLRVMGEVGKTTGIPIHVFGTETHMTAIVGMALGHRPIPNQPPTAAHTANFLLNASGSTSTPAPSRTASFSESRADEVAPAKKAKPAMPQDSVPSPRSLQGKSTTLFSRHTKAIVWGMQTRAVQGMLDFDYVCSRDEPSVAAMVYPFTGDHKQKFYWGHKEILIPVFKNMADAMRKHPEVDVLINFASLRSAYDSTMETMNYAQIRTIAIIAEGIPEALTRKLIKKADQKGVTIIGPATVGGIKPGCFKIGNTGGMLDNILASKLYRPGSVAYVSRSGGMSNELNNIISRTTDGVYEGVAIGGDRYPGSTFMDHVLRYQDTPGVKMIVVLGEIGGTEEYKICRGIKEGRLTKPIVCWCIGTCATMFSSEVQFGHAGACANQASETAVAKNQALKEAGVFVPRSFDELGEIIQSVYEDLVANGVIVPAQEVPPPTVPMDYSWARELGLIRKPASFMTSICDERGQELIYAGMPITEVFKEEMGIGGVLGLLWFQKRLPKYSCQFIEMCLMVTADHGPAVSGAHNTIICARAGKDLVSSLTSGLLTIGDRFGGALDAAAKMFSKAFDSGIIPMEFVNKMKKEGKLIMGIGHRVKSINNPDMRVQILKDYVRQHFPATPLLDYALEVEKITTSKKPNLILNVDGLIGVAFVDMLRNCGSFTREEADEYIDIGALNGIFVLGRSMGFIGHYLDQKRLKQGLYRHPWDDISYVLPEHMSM
Procedure: as §1, with “Purification of ATP Citrate lyase-human and rat enzymes (ii) human enzyme Human ATP citrate lyase was prepared as described in European Journal of Biochemistry, 1992, 204, 491-99, with modifications for large scale purification according to Wells as referred to above. Protein obtained by this method was pure as judged by SDS-PAGE. Assay of ATP Citrate lyase in the presence of inhibitors ATP Citrate” for “ATP Citrate”, “method of […] al (J.” for “method of Linnet al (J.”, “(Elsevier Biosoft). […]” for “(Elsevier Biosoft). For competitive inhibitors data was fitted to the equation”

[1] = system: Beagle dog plasma cholesterol and triglyceride levels; assay: Measurement of hyperlipidaemic activity in dogs: plasma cholesterol and triglyceride levels; format: in vivo; conditions: male Beagle dogs; 25 mg/kg/day for 2 weeks
Procedure: (§2) 3. Measurement of hyperlipidaemic activity in rats and dogs
25 (b) Dog The compound of example 2 was administered to male Beagle dogs at a level of 25 mg/kg/day for 2 weeks.

[2] = system: Sprague Dawley rat plasma cholesterol and triglyceride levels; assay: Measurement of hyperlipidaemic activity in rats: plasma cholesterol and triglyceride levels; format: in vivo; conditions: in diet at 0.125% (w:w) for 7 days
Procedure: as §2
The compound of example 2 was administered to Spmgue Dawley rats in their diet at a concentration of 0.125% (w:w) for 7 days.

SMILES: O=C(O)[C@H](O)[C@@]1(O)C[C@@H](CCCCCCc2ccc(Cl)cc2Cl)OC1=O (relative stereo) [Example 11, ±(1'R*,3S*,5R*) 3-[Carboxy(hydroxy)methyl]-5-[6-(2,4-dichlorophenyl)hexyl]-3-hydroxytetrahydrofuran-2-one]
- activity at 3 µM (HepG2 cells; read-out: CL synthesis): 69 ± 13%
- activity at 3 µM (HepG2 cells; read-out: FA synthesis): 74 ± 11%
- activity at 10 µM (HepG2 cells; read-out: CL synthesis): 86 ± 29%
- activity at 10 µM (HepG2 cells; read-out: FA synthesis): 76 ± 13%

- Ki (rat ATP citrate lyase): 700 nM
- Ki (human ATP citrate lyase): 760 nM
SMILES: O=C(O)C[C@](O)(C[C@@H](O)CCCCCCc1ccc(Cl)cc1Cl)C(=O)O (single isomer, unassigned) [Example 18, (+) (3R*,5S*) 3-Carboxy-11-(2,4-dichlorophenyl)-3,5-dihydroxyundecanoic acid, disodium salt]

- activity against ATP citrate lyase (rat) (rat ATP citrate lyase): inactive
SMILES: O=C(O)C[C@]1(O)C[C@H](CCCCCCc2ccc(Cl)cc2Cl)OC1=O (relative stereo) [Example 2, ±(3R*, 5S*) 3-Carboxymethyl-5-[6-(2,4-dichlorophenyl)hexyl]3-hydroxytetrahydrofuran-2-one]
- reduction of plasma cholesterol levels [1]: 20-25%
- reduction of plasma triglyceride levels [1]: 20-25%
- reduction of plasma cholesterol levels [2]: 30%
- reduction of plasma triglyceride levels [2]: 64%
- activity at 30 µM (HepG2 cells; read-out: CL synthesis): 8 ± 3%
- activity at 30 µM (HepG2 cells; read-out: FA synthesis): 32 ± 3%

- Ki (rat ATP citrate lyase): 700 nM
- Ki (human ATP citrate lyase): 690 nM
SMILES: O=C(O)C[C@](O)(C[C@@H](O)CCCCCCc1ccc(Cl)cc1Cl)C(=O)O (single isomer, unassigned) [Example 20, (-) (3R*,5S*) 3-Carboxy-11-(2 4-dichlorophenyl)-3 5-dihydroxyundecanoic acid, disodium salt]

- Ki (rat ATP citrate lyase): 800 nM
SMILES: O=C(O)C[C@](O)(C[C@@H](O)CCCCCCc1ccc(Cl)cc1Cl)C(=O)O (relative stereo) [Example 1, ±(3R*, 5S*) 3-Carboxy-11-(2,4-dichlorophenyl)-3,5-dihydroxyundecanoic acid, disodium salt]
- activity at 1000 µM (HepG2 cells; read-out: CL synthesis): 80 ± 6%
- activity at 1000 µM (HepG2 cells; read-out: FA synthesis): 123 ± 3%
